Reference: US8759326B2, “Drug combinations containing PDE4 inhibitors and NSAIDs” (Boehringer Ingelheim International GmbH, priority 2009, dated 2014)

Assays:
[1] = system: male Wistar rats; assay: Experiment 4: diarrhoea and mesentery histopathology in rats, roflumilast with or without SC-560 or lumiracoxib; type: in vivo, rat; conditions: p.o. four days, roflumilast 10 mg/kg at 1300, SC-560 or lumiracoxib 2 mg/kg at 0800 and 1700, 95 hours after t0; for Diarrhoea: animals affected out of animals; for Mesentery: Proliferation of fibroblasts / Mesentery: multifocal perivascular mononuclear infiltration (=inflammation parameter): animals affected out of animals examined
Experimental: (§1) For pharmacokinetic analysis (determining the plasma levels of the substances) on day 4 one rat from each group was used; these rats were no longer available for other parameters under investigation.
(§2) At the end of the experiment (95 hours after t0 (=the time of the first administration on day 1, 0800 hours)) the rats from the individual groups were examined phenotypically and histopathologically for the presence of multifocal perivascular mononuclear infiltration (=inflammation parameter) in the mesentery and for the proliferation of fibroblasts in the mesentery. In addition, the occurrence of diarrhoea in the rats from the different groups was noted.

[2] = system: male Wistar rats; assay: Experiment 3: weight loss, leukocytosis and neutrophilia in rats, roflumilast with or without SC-560 or lumiracoxib; type: in vivo, rat
[3] = system: male Wistar rats; assay: Experiment 1: weight loss, leukocytosis and neutrophilia in rats, roflumilast with or without diclofenac
Experimental: For pharmacokinetic analysis (determining the plasma levels of the substances) on day 4 one rate from each group was used; these rats were no longer available for other parameters under investigation.
The average±standard deviation of the body weights at time t0 was 355±17 g.
At the end of the experiment (95 hours after t0 (=the time of the first administration on day 1, 0800)) the proportion of white blood cells (×1000 cells/μl blood, FIG. 1B, left-hand Figure) and the proportion of neutrophils (in % of white blood cells, FIG. 1B, right-hand Figure) were determined from the blood of 4 or 5 of the rats from the individual groups.

[4] = system: male Wistar rats; assay: Experiment 2: diarrhoea and mesentery histopathology in rats, roflumilast with or without diclofenac; conditions: roflumilast 10 mg/kg p.o. daily; six rats per group; between day 4 and day 5
Experimental: as §1, §2

parameters measured after the administration of the NSAID alone, compared with control ([2]; 2 mg/kg p.o. at 0800 and 1700, four days)	SMILES	Diarrhoea [1]	protective effect on roflumilast-mediated weight loss, leukocytosis and neutrophilia ([2]; SC-560 2 mg/kg p.o. at 0800 and 1700 co-administered with roflumilast 10 mg/kg, four days)	parameters measured after the administration of the NSAID alone, compared with control ([3]; diclofenac 1 mg/kg p.o. at 0800 and 1700, four days)	Mesentery: Proliferation of fibroblasts [1]	Mesentery: multifocal perivascular mononuclear infiltration (=inflammation parameter) [1]	PDE4 inhibitor-mediated side effects such as weight loss, leukocytosis, neutrophilia and diarrhoea ([2]; FIG. 2A, 2B, p.o. four days, roflumilast 10 mg/kg, lumiracoxib 2 mg/kg twice daily)	death of rats [4]	death of rats ([3]; roflumilast 10 mg/kg p.o. daily, six rats per group, between day 4 and day 5)
	COc1ccc(-n2nc(C(F)(F)F)cc2-c2ccc(Cl)cc2)cc1 [SC-560]	0/6	absolutely no protective effect						
	O=C(O)Cc1ccccc1Nc1c(Cl)cccc1Cl [diclofenac]			very similar to the control groups					
very similar to the control groups	Cc1ccc(Nc2c(F)cccc2Cl)c(CC(=O)O)c1 [lumiracoxib]	0/6			0/5	0/5			
	O=C(Nc1c(Cl)cncc1Cl)c1ccc(OC(F)F)c(OCC2CC2)c1 [roflumilast]	2/6			5/5	5/5	observed	one rat	one rat
